# Results reported in US20220110916A1, “Antioxidant and Use Thereof” (Bioradical Research Institute Corp., priority 2019, published 2022).
# Tests used:
# [1] = tested on: neutrophils isolated from the peripheral blood of healthy individuals; assay: Superoxide production amount of PMA-stimulated neutrophils, CLA chemiluminescence; assay type: cell-based, human; details: 0-200 μmol/l or 0-5000 μmol/l; PMA 100 ng/ml; control being 100; FIG. 2
# Protocol: For examining the reactive oxygen-eliminating effect of the antioxidant of the present invention, the superoxide produced by the neutrophils when the neutrophils isolated from the peripheral blood of healthy individuals were stimulated with PMA (phorbor-12-myristate-13-acetate) was used. The superoxide production amount was measured by chemiluminescence using CLA (2-methyl-6-pjenyl-3, 7-dihydroimidazo[1,2-a]pyrazine-3-one).
# (§1) First, ED2AP, BisEp-C3, edaravone, BisEp-C1, or BisEp-C1 (H2) was added to a neutrophil of 4×10^5 cells per sample so as to achieve a predetermined concentration (0, 12.5, 25, 50, 100, or 200 μmol/l, or 0, 125, 250, 500, 1250, 2500, or 5000 μmol/l) with 5 μmol of CLA, and then the cell suspension was seeded in flat-bottomed 96-well plates. The volume of the suspension was 200 μl/well, and phenol red free Ca+, Mg+ HBSS was used as the solution. In addition, the neutrophil was stimulated by adding PMA so as to achieve a concentration of 100 ng/ml. After the stimulation, a plate reader (Envision 2104 Multilabel Reader, produced by Perkin Elmer Co., Ltd.) was used to measure the chemiluminescence value over time for 30 minutes with the PMA stimulation time being a reference. The measurement interval was 30 seconds. The sum of the chemiluminescence values obtained every 30 seconds for 30 minutes was taken as the superoxide production amount. In addition, as a control, the superoxide production amount was measured in the same manner except that each compound was not added. The relative value of the superoxide production amount when each compound was added was calculated with the superoxide production amount of the control being 100.
# [2] = tested on: rat neuroid cells B50; assay: Toxicity evaluation on byproducts after reaction with singlet oxygen, cell viability; assay type: cell-based; details: 50, 100, or 200 μmol/l reacted with RB + G-LED 525 nm in cell-free system; FIG. 6
# Protocol: In a cell-free system, the RB was added to media (50% FCS-containing RPMI-1640 media) containing edaravone, ED2AP, and BisEp-C3 having a predetermined concentration (50, 100, or 200 μmol/l) and then irradiated with LED (G-LED) at 525 nm to generate singlet oxygen, whereby reacting each compound with singlet oxygen. The cell viability was measured in the same manner as in Example 7(1), except that the culture solution after the reaction was used as a medium of the neuroid cell B50. As a negative control (NC), the cell viability was measured in the same manner except that each compound and […] were not added in the cell-free system. Further, as a control (RB), the cell viability was measured in the same manner except that each compound was not added and only […] was added in the cell-free system.
# [3] = tested on: rat neuroid cells B50; assay: Alleviation of singlet oxygen (Rose Bengal + G-LED) cytotoxicity, Alamar Blue fluorescence; assay type: cell-based; details: 0, 12.5, 25, 50, or 100 μmol/l; 200 nmol/l RB + G-LED 5 minutes; FIG. 3
# Protocol: Edaravone, ED2AP and BisEp-C3 were examined whether they had the function of alleviating neuronopathy. Specifically, singlet oxygen was generated by combining Rose Bengal (RB), which is a sensitizer, with green light (G-LED), and the function of alleviating the cytotoxicity of the generated singlet oxygen was examined with the cellular activity being an indicator.
# First, rat neuroid cells B50 were cultured in 12-well dishes at 2×10^5 cells/well (medium: RPMI-1640 medium containing 5% FCS) overnight. After the culturing, the medium of each well was replaced with HBSS (1000 μl/well; phenol red free Ca+, Mg+) containing 200 nmol/l RB and edaravone, ED2AP, or BisEp-C3 having a predetermined concentration (0, 12.5, 25, 50, or 100 μmol/l). The dish was then irradiated with G-LED for 5 minutes to generate singlet oxygen. Thereafter, the medium of each well was replaced with 1000 μl of HBSS and Alamar Blue was added. The dish was then allowed to react for about 2 hours in an incubator at 37° C. and 5% CO2. After the reaction, fluorescence intensity (excitation wavelength: λ-560 nm, fluorescence wavelength: λ-595 nm) was measured with a plate reader (infinite200, Tecan Trading AG). In this experimental system, the higher the cellular activity, the more Alamar Blue is taken up and the higher the fluorescence intensity. As a control, fluorescence intensity was measured in the same manner except that sodium azide (Azide, NaN3) was added instead of the compounds so as to achieve a concentration of 4 mmol/l. As a negative control (NC), fluorescence intensity was measured in the same manner except that RB was not added. The relative value of the fluorescence intensity in the sample to which each compound was added was calculated with the fluorescence intensity of the negative control being 100.
# [4] = tested on: rat neuroid cells B50; assay: Toxicity evaluation, cell viability by Alamar Blue after 24 hours; assay type: cell-based; details: 12.5, 25, 50, 100, or 200 μmol/l, FIG. 5
# Protocol: Rat neuroid cells B50 were seeded in 12-well plates and then cultured. Edaravone (RC), ED2AP, or BisEp-C3 was added to each well so as to achieve a predetermined concentration (12.5, 25, 50, 100, or 200 μmol/l), and then incubated for 24 hours at 37° C. and 5% CO2. Cell viability in each well after the culture was measured using Alamar Blue.
# [5] = Storage stability in pH7.4-PBS or pure water at 37° C. protected from light, residual rate by HPLC; assay type: physicochemical; details: 200 μmol/l; for Residual rate (%) After 1 week / Residual rate (%) After 2 weeks: 37° C., protected from light; for Residual rate (%) Initial concentration: initial concentration (reference 100%)
# Protocol: The storage stability of edaravone, EMPO, ED2AP, and BisEp-C3 of the following formula (A) were examined. Specifically, edaravone, EMPO, ED2AP, and BisEp-C3 were dissolved in pH7.4-PBS or pure water so as to have a final concentration of 200 μmol/l to prepare dissolved solutions of these compounds. When the compounds were difficult to be dissolved, they were dissolved in an ultrasonic cleaner with warm water at 40° C.
# Under the measurement conditions for HPLC described below, the initial concentration was quantified, and then each solution was stored in an oven, which was protected from light, at 37° C., and quantified under the same measurement conditions after 1 week and 2 weeks, to determine residual rate (%) with the initial concentration (100%) being a reference.
# Measurement conditions for HPLC
# PDA detector (Format: SPD-M20A) HPLC Assay Conditions:
# Column: Atlantis dC18 5 μm (250×4.6 mm I.D.; produced by Waters)
# Column temperature: 45° C.
# Detection method: UV (254 nm)
# Eluate A: pH3 buffer solution (adjusted to pH3 by adding phosphoric acid to 0.05M KH2PO4 aqueous solution)/methanol=90/10
# [6] = tested on: neutrophils isolated from the peripheral blood of healthy individuals; assay: Superoxide production amount of PMA-stimulated neutrophils with PBS solutions stored for 10 days vs immediately after preparation; assay type: cell-based, human; details: PBS solution stored for 10 days vs immediately after preparation; 0, 6.25, 12.5, 25, 50, 100 or 20 μmol/l; FIG. 4
# Protocol: as §1
# PBS solutions of ED2AP, BisEp-C3, and edaravone were prepared in the same manner as in Example 2 and stored for 10 days. The superoxide production amount was calculated in the same manner as in Example 4 except that the PBS solution after storage was added instead of ED2AP, BisEp-C3, edaravone, BisEp-C1 or BisEp-C1 (H2) so as to achieve a predetermined concentration (0, 6.25, 12.5, 25, 50, 100 or 20 μmol/l) of ED2AP, BisEp-C3 or edaravone. Further, PBS solutions of ED2AP, BisEp-C3, and edaravone were prepared in the same manner as in Example 2, and the superoxide production amount was calculated in the same manner except that the PBS solution immediately after preparation was used. Then, the relative value of the superoxide production amount of each sample was calculated with the superoxide production amount of the sample of 0 μmol/l being 100.
smiles,measurement,setting,value
"CC1=NN(c2ccccc2)C(=O)C1 [Edaravone, 5-methyl-2-phenyl-2,4-dihydro-3H-pyrazol-3-one, reference compound]",relative value of the superoxide production amount,[1],suppressed the superoxide production amount in a concentration-dependent manner
same,cytotoxicity of the byproducts after reaction with singlet oxygen (cell viability),[2],not cytotoxic at any concentration
same,recovery of the fluorescence intensity (cellular activity),[3],not recovered
same,cytotoxicity (cell viability),[4],not cytotoxic at any concentration
same,Residual rate (%) After 1 week,[5]; Pure water,82.8%
same,Residual rate (%) After 2 weeks,[5]; Pure water,80.4%
same,Residual rate (%) Initial concentration,[5]; Pure water,100%
same,Residual rate (%) After 1 week,[5]; pH 7.4-PBS,31.2%
same,Residual rate (%) After 2 weeks,[5]; pH 7.4-PBS,0.2%
same,Residual rate (%) Initial concentration,[5]; pH 7.4-PBS,100%
same,superoxide-eliminating ability after storage,[6],remarkably lowered after storage for 10 days
